Consider 1 substance from patent publication US20260263550A1, “METHODS AND COMPOSITIONS FOR TREATING, PREVENTING, INHIBITING, AMELIORATING OR DELAYING THE ONSET OF OPHTHALMIC CONDITIONS” (Stealth BioTherapeutics Inc., priority 2021, published 2026).

Data set [1] can be described thus: Uptake in plasma and compartments of the eye in a rabbit model (subcutaneous or topical ocular dosing). In kind it is in vivo, Dutch Belted Rabbits. The protocol: 3 mg/mL elamipretide or compound of Formula IIa in saline was dosed subcutaneously at 1.5 mg/kg. A 3 mg/mL elamipretide or compound of Formula IIa formulation was prepared by dissolving 81 mg elamipretide in a total volume of 27 mL of sterile saline and mixing well. • (ii) Groups 2 & 4: Topical Ocular Formulation for administration of elamipretide or compound of Formula IIa
For each preparation (i.e., elamipretide or compound of Formula IIa, sodium chloride (105 mg) was dissolved in 16 mL of water for injection with mixing. With mixing, 82.8 mg of sodium phosphate monobasic, monohydrate was then added. With mixing, 0.400 mL of a 5 mg/mL benzalkonium chloride solution in water (to be prepared by diluting 0.100 mL of a 50% benzalkonium chloride solution in water to 10 mL with water for injection) was then added. Two hundred (200) mg of elamipretide or compound of Formula IIa was then added with mixing and the formulation pH was adjusted to 5.8 (+/−0.1) with 1 M sodium hydroxide in water solution. The final volume of the formulation was then be brought to 20 mL using water for injection. Each formulation (elamipretide or compound of Formula IIa) was used for topical ocular administration at a dose of 50 μL/eye OU.
A total of 48 male Dutch Belted Rabbits were used in the study. Each animal was approximately 2 kg.
For subcutaneous administration, rabbits were dosed via a single subcutaneous injection of 1.5 mg/kg and at the scruff of the neck between the shoulder blades using a syringe with an attached 27G×½ inch needle (or similar). The site of injection was checked to ensure no leakage of dose immediately following administration.
For topical administration, a calibrated Gilson positive displacement pipette was used to administer 50 μL of formulation onto the globe the eye while the lower eyelid was pulled away from the globe. Administration was twice daily (i.e., BID). Doses were administered to both eyes, every 8 to 12 hours for 11 total doses.
Terminal blood samples (approximately 6 mL) were collected from two animals/group/timepoint via the central ear artery at approximately 0.5, 1, 2, 4, 8, and 24 hours postdose. Blood samples were collected into tubes containing K2EDTA as the anticoagulant and inverted several times to ensure adequate mixing of blood and anticoagulant and placed on ice. Within 30 min of collection, samples were centrifuged to harvest plasma and stored at −80° C. until analyzed.
Following blood collection, designated animals were euthanized by barbiturate overdose. Following euthanasia, both eyes of each rabbit were harvested and dissected for collection of ocular tissue and fluid. Optic nerve and retina were collected from Group 1 and 3 animals, and aqueous humor, retina, conjunctiva, cornea, sclera, and optic nerve were collected from Group 2 and 4 animals. Following dissection, all fluids and tissues were placed in pre-tared tubes, weight collected, and then flash frozen on dry ice and placed in a freezer at −80° C. or lower until analyzed. Concentrations of test article in plasma in the ocular tissues (ng/g tissue) and fluids (ng/mL fluid) were determined utilizing a method previously developed by the CRO.

The conditions of data set [2]: at 24 weeks of treatment; Pieramici & Ehlers, slide 15; cited from earlier work.
Data set [3] relates to iPSC-derived RPE cells from AMD donors. The data set can be described thus: Microarray analysis of gene expression on in vitro Bruch's membrane model. The settings on record: AMD-derived RPE on nitrite-modified ECM, 10, 100, 1000 nM, 24 hours. In kind it is cell-based, human. The protocol:
(§1) General. iPSC-derived RPE were generated from AMD patients (2 atrophic; 1 exudative) and patients with no history of AMD (n=3). To test the therapeutic efficacy of elamipretide and compound of Formula IIa, cell viability was analyzed on nitrite-modified extracellular matrix (ECM), a typical modification of aged Bruch's membrane, for 24 hrs. DNA microarrays were used to elucidate gene expression in AMD-derived RPE cultured on nitrite-modified ECM.
Microarray analysis. iPSC-derived RPE cells from AMD donors (n=3; 2 atrophic with GA, 1 exudative) were treated with drug (elamipretide or compound of Formula IIa) as described below and cultured on an in vitro Bruch's membrane model for 24 hours.
• AMD donors only (n=3 individual donors) • Cells treated with elamipretide (also referred to as “309” in the figures) at 10 nM, 100 nM and 1000 nM • Cells treated with compound of Formula IIa (also referred to as “146c” in the figures) at 10 nM, 100 nM, 1000 nM
Microarray studies using Affymetrix GeneChip Human Clariom™ S Assay were performed as described in Gong et al. (2020).

Data set [4] shares this test system. Kind of data set: Measurement of mitochondrial function (Seahorse XF Cell Mito Stress Test). In kind it is cell-based, human. The following applies: 10, 100, 1000 nM, treatment began 24 hours prior to assay, FIGS. 8AA-8AL. On the procedure:
Measurement of mitochondrial function. Analysis of mitochondrial function was performed on live iPSC-derived RPE cells from AMD donors (n=3; 2 atrophic with GA, 1 exudative) treated with drug (elamipretide, compound of Formula IIa, or vehicle) as described below and iPSC-derived RPE cells from non-diseased controls (n=2) using the XFe96 Extracellular Flux Analyzer (Agilent Technologies, Santa Clara, California, www.agilent.com) and the Seahorse XF Cell Mito Stress Test (CMST) Kit (Agilent Technologies). iPSC-derived RPE cells were seeded onto a laminin-coated Seahorse XF plates and grown until confluent. Data were normalized by cell count. Drug treatments began 24 hours prior to assay. […]
Cells were stained with DAPI and counted by ImageJ software (National Institute of Health, Bethesda, Maryland, www.nih.gov). […] Oxygen consumption rate was detected under basal conditions followed by the sequential addition of oligomycin, carbonyl cyanide 4-(trifluoromethoxy) phenylhydrazone (FCCP), rotenone, and antimycin A. From these sequential additions, the following parameters can be derived: basal respiration, ATP production, maximal respiration, and spare respiratory capacity.

Data set [5] shares this test system. Kind of data set: Cell viability assay on nitrite-modified ECM (Real Time-Glo MT Cell Viability Assay). It counts as cell-based, human. The following applies: 10, 100, 1000 nM; 24 hours; versus vehicle-treated cells; FIG. 8J, *p<0.05. The protocol: as §1
Preparation of RPE cell-derived ECM and nitrite-modified ECM RPE cell-derived ECM plates were prepared from ARPE-19 cells as described in Wang et al., Curr Eye Res. 30:691-702 (2005); Fields et al. (2017); and Moreira et al., Transl Vis Sci Technol. 4:10 (2015). ECM on 96-well plates were used to create two experimental plating surfaces (nontreated ECM and nitrite-modified ECM). Nitrite-modified ECM was prepared by adding 100 mM sodium nitrite to ECM followed by incubation at 37° C. for 7 days. Plates were then washed with DPBS and incubated with DPBS for 4 hours to completely remove the nitrite. […]
Cell viability was measured by Real Time-Glo MT Cell Viability Assay (Promega, Madison, WI, www.promega.com) according to the manufacturer's protocol. […] Luminescent signals were acquired using a BioTek FLx800 plate reader (BioTek).

elamipretide [reference compound]: the “concentration in plasma, elamipretide compared with compound of Formula IIa” value in data set [1] (SC 1.5 mg/kg single dose or topical eye drops BID, 11 doses, FIGS. 1A, 1B) is reported as “roughly equivalent”. For the same substance, in data set [1] (regardless of mode of administration (topical or subcutaneous), FIGS. 2A, 2B), the “concentration accumulated in the retina, compared with the other test article” value is listed as “much lower”. The “Average BCVA and LLVA in NCGA and HRD patients” value in data set [2] was “improved significantly”. Moreover, the “expression of complement regulatory genes including CFHR2” value in data set [3] (FIG. 8S) is recorded as “increase expression”. In addition, the “expression of complement component genes (C1R, C3, C4A) increased by nitration of ECM” value in data set [3] (FIGS. 8L-8P) was “reverse this trend”. Moreover, the “expression of mitochondrial-related genes, such as CYP24A1 and GLS” value in data set [3] (FIGS. 8W-8Z) is given as “altered the expression”. For the same substance, in data set [4], the “mitochondrial function (ATP production; basal respiration; maximal respiration; spare respiratory capacity)” value is on record as “efficacy in improving mitochondrial function”. Besides, the “AMD-derived RPE cell viability on nitrite-modified ECM” value in data set [5] is given as “significantly enhanced”.
